Where two headings read alike, the source gives them in different places.
What was measured:
humans = details: cited from earlier work
hα1A adrenergic receptor = molecular target: T1, hα1A adrenergic receptor (Homo sapiens, UniProt P35348); assay: Radioligand binding at hα1A adrenergic receptor ([3H]prazosin); details: mean ± SD
T1 construct: expressed in transfected cells; host or cells: Chinese hamster ovary cells (membrane preparations)
T1 sequence (P35348 1-466): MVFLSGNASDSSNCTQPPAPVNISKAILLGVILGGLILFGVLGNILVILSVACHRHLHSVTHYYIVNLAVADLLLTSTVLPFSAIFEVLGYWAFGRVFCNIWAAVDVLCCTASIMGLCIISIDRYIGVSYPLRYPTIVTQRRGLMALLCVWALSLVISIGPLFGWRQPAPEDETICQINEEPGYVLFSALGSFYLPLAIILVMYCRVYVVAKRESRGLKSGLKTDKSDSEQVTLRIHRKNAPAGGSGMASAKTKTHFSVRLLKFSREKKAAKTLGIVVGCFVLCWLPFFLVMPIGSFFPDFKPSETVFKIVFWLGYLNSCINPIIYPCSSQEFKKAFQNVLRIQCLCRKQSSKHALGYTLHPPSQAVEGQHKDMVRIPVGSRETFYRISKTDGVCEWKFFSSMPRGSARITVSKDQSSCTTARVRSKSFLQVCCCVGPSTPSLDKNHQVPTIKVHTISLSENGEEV

[1] = molecular target: T2, dopaminergic hD2 receptor (Homo sapiens, UniProt P14416); assay: Radioligand binding at dopaminergic hD2 receptor ([3H]spiperone)
T2 construct: expressed in transfected cells; host or cells: HEK 293 cells (membrane preparations)

rat TAAR1 = molecular target: T3, rat TAAR1 (Rattus norvegicus, UniProt Q923Y9); assay: Radioligand binding at rat TAAR1 ([3H]RO5166017)
T3 construct: expressed in transfected cells; host or cells: HEK 293 cells (membrane preparations)

human 5-HT2B receptor = human 5-HT2B receptor (Homo sapiens, UniProt P41595); details: for EC50: h5-HT2B Activation potency EC50 ± SD, HEK 293 cells, calcium FLIPR, mean ± SD; for Emax: HEK293, read-out: h5-HT2B Activation efficacy max ± SD, relative to 5-HT = 100%
h5-HT2A receptor = molecular target: T4, h5-HT2A receptor (Homo sapiens, UniProt P28223); assay: Radioligand binding at h5-HT2A receptor ([3H]ketanserin); details: for Selectivity 5-HT2A vs. 5-HT1A / Selectivity 5-HT2A vs. 5-HT2C: binding ratio; for Ki: h5-HT2A Receptor binding Ki ± SD, [3H]ketanserin, mean ± SD
T4 construct: expressed in transfected cells; host or cells: HEK 293 cells (membrane preparations)

hα2A adrenergic receptor = molecular target: T5, hα2A adrenergic receptor (Homo sapiens, UniProt P08913); assay: Radioligand binding at hα2A adrenergic receptor ([3H]rauwolscine)
T5 construct: expressed in transfected cells; host or cells: Chinese hamster lung cells (membrane preparations)
T5 sequence (P08913 1-465): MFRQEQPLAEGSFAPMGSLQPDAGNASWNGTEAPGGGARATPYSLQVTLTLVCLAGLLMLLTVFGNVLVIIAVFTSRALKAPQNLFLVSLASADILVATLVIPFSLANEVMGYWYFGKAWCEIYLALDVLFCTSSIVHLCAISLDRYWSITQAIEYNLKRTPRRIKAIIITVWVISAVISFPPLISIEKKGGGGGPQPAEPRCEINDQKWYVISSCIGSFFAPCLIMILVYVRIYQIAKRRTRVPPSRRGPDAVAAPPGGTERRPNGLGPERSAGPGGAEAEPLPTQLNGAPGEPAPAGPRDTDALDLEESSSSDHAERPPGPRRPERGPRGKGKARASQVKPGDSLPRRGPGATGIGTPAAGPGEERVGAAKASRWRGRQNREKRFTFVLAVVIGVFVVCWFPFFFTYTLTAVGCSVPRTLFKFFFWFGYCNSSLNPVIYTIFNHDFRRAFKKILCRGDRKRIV

hSERT = molecular target: T6, hSERT (Homo sapiens, UniProt P31645); assay: Radioligand binding at hSERT ([3H]citalopram)
T6 construct: expressed in transfected cells; host or cells: HEK 293 cells (membrane preparations)

hDAT = molecular target: T7, hDAT (Homo sapiens, UniProt Q01959); assay: Radioligand binding at hDAT ([3H]WIN35,428)
T7 construct: expressed in transfected cells; host or cells: HEK 293 cells (membrane preparations)

h5-HT1A receptor = molecular target: T8, h5-HT1A receptor (Homo sapiens, UniProt P08908); assay: Radioligand binding at h5-HT1A receptor ([3H]8-OH-DPAT)
T8 construct: expressed in transfected cells; host or cells: HEK 293 cells (membrane preparations)
T8 sequence (P08908 1-422): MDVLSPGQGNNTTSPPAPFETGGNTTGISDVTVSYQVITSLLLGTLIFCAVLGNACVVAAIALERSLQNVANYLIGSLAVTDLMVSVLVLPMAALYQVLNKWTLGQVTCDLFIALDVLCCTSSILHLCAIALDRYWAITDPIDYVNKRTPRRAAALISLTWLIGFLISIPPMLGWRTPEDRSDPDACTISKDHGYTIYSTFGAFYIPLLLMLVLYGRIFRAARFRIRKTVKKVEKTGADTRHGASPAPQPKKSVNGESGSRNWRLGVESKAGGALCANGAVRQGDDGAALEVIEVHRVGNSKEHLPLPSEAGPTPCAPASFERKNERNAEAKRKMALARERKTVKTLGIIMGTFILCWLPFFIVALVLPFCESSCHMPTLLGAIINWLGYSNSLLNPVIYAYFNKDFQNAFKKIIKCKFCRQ

human 5-HT2A receptor = human 5-HT2A receptor (Homo sapiens, UniProt P28223); details: for Emax: NIH3T3, read-out: h5-HT2A Activation efficacy max ± SD, relative to 5-HT = 100%
mouse TAAR1 = molecular target: T9, mouse TAAR1 (Mus musculus, UniProt Q923Y8); assay: Radioligand binding at mouse TAAR1 ([3H]RO5166017)
T9 construct: expressed in transfected cells; host or cells: HEK 293 cells (membrane preparations)

h5-HT2C receptor = molecular target: T10, h5-HT2C receptor (Homo sapiens, UniProt P28335); assay: biochemical; assay type: binding; details: [3H]mesulergine; mean ± SD; read-out: h5-HT2C Receptor binding Ki ± SD
T10 construct: expressed in transfected cells; host or cells: HEK 293 cells (membrane preparations)
T10 sequence (P28335 33-458): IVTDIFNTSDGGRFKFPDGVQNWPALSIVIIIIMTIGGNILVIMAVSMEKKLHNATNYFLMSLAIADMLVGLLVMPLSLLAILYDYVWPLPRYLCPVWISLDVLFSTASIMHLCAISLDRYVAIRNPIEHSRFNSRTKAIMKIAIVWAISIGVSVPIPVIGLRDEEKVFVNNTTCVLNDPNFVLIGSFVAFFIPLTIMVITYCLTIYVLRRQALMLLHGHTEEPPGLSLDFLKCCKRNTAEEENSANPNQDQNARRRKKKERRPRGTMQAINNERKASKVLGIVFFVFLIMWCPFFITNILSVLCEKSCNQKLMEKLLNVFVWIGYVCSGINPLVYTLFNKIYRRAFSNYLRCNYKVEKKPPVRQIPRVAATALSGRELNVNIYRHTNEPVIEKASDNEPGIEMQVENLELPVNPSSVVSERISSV

hNET = molecular target: T11, hNET (Homo sapiens, UniProt P23975); assay: Radioligand binding at hNET (N-methyl-[3H]nisoxetine)
T11 construct: expressed in transfected cells; host or cells: HEK 293 cells (membrane preparations)
T11 sequence (P23975 whole entry): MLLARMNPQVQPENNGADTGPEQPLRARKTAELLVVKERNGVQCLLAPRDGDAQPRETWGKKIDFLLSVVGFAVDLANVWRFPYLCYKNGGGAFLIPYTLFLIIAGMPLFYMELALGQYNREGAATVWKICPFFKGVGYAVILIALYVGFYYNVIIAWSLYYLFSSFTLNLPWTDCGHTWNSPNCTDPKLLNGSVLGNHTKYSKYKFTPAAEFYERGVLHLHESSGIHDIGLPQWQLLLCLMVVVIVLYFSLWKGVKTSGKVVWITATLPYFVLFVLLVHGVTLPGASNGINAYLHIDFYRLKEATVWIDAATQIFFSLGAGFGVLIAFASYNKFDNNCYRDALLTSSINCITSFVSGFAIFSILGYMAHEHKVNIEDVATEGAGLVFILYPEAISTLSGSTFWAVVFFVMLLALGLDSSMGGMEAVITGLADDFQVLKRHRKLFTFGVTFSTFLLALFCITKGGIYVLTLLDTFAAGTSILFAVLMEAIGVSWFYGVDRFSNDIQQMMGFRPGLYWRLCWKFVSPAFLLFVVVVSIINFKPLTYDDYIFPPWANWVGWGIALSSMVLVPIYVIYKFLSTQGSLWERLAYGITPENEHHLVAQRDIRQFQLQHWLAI

human 5-HT2A receptor, sequence (P28223 whole entry): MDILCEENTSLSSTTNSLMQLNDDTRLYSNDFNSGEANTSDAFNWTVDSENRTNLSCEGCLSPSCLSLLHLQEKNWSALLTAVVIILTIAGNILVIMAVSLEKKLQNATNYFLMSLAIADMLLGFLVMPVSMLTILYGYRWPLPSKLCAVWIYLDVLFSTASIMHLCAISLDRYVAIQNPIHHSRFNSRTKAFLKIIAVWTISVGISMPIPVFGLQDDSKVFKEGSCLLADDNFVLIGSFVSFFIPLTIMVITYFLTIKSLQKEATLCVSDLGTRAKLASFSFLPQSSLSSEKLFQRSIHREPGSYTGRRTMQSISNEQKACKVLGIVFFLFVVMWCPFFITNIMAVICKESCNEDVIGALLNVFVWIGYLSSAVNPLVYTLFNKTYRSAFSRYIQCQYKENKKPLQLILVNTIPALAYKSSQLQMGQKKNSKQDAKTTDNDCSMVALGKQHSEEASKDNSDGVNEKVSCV
T4 sequence (P28223 whole entry): as above
T9 sequence (Q923Y8 whole entry): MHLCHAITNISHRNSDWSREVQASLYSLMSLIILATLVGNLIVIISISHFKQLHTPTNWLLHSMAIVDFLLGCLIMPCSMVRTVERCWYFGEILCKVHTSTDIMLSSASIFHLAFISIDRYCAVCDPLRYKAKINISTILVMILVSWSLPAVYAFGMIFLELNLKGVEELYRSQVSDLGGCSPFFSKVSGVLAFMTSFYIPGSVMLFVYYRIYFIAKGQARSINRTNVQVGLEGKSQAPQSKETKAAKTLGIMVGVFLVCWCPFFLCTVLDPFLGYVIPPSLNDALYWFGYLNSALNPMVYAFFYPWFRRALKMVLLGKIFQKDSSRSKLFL
T6 sequence (P31645 whole entry): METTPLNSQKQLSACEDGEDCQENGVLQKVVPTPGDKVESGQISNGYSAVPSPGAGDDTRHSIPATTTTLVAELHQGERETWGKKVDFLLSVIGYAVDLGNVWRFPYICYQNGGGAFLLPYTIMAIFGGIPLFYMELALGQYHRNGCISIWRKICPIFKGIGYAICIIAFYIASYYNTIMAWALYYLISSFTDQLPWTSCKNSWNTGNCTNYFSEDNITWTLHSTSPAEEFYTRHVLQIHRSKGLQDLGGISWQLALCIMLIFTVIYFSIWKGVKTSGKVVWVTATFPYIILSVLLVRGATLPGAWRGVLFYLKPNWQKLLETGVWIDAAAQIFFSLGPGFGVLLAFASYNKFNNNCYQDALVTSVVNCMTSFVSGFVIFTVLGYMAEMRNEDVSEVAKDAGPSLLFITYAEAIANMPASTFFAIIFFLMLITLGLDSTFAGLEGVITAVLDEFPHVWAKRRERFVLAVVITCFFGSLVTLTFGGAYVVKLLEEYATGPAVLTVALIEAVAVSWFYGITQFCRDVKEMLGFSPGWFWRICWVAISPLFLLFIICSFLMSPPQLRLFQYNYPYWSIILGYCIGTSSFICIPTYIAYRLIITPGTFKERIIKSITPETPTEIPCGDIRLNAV
T2 sequence (P14416 whole entry): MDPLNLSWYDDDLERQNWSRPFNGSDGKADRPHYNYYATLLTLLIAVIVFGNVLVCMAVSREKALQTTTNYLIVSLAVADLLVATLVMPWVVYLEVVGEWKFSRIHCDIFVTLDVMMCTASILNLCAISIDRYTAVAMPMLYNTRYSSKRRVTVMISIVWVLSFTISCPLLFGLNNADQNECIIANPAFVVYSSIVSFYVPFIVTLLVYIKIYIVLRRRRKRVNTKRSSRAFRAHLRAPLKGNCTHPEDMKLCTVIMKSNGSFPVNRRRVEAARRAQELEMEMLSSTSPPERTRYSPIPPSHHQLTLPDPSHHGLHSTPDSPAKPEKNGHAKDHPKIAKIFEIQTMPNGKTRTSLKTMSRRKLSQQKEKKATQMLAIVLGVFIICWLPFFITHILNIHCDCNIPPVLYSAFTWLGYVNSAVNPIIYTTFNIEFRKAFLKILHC
T3 sequence (Q923Y9 whole entry): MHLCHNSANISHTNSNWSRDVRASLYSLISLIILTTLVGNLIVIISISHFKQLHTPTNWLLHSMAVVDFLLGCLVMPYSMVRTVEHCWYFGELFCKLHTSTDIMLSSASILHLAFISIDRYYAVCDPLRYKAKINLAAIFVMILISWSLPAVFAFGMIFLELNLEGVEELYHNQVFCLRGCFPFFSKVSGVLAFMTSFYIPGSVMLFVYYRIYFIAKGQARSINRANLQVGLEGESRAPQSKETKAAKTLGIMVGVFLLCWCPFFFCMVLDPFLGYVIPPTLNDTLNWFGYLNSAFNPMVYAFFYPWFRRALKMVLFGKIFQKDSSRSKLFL
human 5-HT2B receptor, sequence (P41595 whole entry): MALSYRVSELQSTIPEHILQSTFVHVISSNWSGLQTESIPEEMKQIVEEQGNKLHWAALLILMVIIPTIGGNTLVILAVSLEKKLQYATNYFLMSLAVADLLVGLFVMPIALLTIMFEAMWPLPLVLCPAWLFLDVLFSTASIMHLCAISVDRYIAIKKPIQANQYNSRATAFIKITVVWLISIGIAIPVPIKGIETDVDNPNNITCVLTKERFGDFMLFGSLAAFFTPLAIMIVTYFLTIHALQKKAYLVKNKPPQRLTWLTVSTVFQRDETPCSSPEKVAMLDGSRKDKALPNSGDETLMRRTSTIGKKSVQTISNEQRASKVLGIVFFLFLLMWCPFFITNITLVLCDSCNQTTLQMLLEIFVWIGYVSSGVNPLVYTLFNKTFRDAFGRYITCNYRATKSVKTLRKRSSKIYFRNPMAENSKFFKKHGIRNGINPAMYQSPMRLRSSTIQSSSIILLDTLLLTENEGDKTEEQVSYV
T7 sequence (Q01959 whole entry): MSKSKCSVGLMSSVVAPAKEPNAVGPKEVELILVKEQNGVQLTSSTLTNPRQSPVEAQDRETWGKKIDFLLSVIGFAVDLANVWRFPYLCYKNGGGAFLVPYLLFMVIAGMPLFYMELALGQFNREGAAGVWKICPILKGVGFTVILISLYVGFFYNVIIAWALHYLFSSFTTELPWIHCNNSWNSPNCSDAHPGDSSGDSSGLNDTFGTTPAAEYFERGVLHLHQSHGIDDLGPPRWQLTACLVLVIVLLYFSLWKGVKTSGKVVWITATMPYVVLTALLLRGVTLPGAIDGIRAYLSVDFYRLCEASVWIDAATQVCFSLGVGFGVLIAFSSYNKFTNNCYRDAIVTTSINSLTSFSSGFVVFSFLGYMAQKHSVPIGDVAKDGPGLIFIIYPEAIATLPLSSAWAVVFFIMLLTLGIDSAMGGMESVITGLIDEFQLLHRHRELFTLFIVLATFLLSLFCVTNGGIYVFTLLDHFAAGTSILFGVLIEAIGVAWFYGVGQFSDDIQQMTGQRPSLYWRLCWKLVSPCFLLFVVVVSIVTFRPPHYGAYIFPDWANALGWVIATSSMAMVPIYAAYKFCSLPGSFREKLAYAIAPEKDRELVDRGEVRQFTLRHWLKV

| Compound | Psychedelic / active dose in humans (humans; ref Shulgin and Shulgin 1991) [mg] | Increase in human potency compared to mescaline (5) (humans; ref Shulgin and Shulgin 1991) [fold] | Ki (hα1A adrenergic receptor) [µM] | Ki [1] [µM] | Ki (rat TAAR1) [µM] | EC50 (human 5-HT2B receptor) [µM] | Selectivity 5-HT2A vs. 5-HT1A (h5-HT2A receptor) | Selectivity 5-HT2A vs. 5-HT2C (h5-HT2A receptor) | Ki (h5-HT2A receptor) [µM] | Ki (hα2A adrenergic receptor) [µM] | Ki (hSERT) [µM] | Ki (hDAT) [µM] | Ki (h5-HT1A receptor) [µM] | EC50 (human 5-HT2A receptor) [µM] | Emax (human 5-HT2A receptor) [%] | Ki (mouse TAAR1) [µM] | Ki (h5-HT2C receptor) [µM] | Increase in human potency compared to mescaline (5) (humans; ref Trachsel 2012) [fold] | Ki (hNET) [µM] | Emax (human 5-HT2B receptor) [%] |
| --- | --- | --- | --- | --- | --- | --- | --- | --- | --- | --- | --- | --- | --- | --- | --- | --- | --- | --- | --- | --- |
| COc1cc(CC(C)N)c(OC)cc1Br (centres unmarked) [compound 2, 4-bromo-2,5-dimethoxyamphetamine, reference compound] | 1 to 3 |  |  |  |  |  |  |  |  |  |  |  |  |  |  |  |  |  |  |  |
| COc1cc(CC(C)N)c(OC)cc1C (centres unmarked) [compound 7, 2,5-dimethoxy-4-methylamphetamine, reference compound] | 3 to 10 |  |  |  |  |  |  |  |  |  |  |  |  |  |  |  |  |  |  |  |
| COc1cc(CCN)cc(OC)c1SC [compound 10, 4-thiomescaline, reference compound] | 20 to 40 | 10 |  |  |  |  |  |  |  |  |  |  |  |  |  |  |  |  |  |  |
| COc1cc(CCN)cc(OC)c1OC(F)F [compound 12, 4-difluoromethoxy-3,5-dimethoxyphenethylamine] |  |  | 8 | > 6.3 | 0.88 ± 0.18 | > 10 | 0.7 | 0.8 | 3.5 | 1.7 | > 7.5 | > 8.5 | 2.5 | 1.5 | 85 to 94 | > 4.2 | 2.8 | 4 | > 9.7 |  |
| COc1cc(CCN)cc(OC)c1OCCF [compound 16, 3,5-dimethoxy-4-(2-fluoroethoxy)phenethylamine] |  |  | > 8.7 | > 6.3 | > 4 | 2.3 |  |  | > 12 | 3.7 | > 7.5 | > 8.5 | > 5.6 | 5.7 | 85 to 94 | > 4.2 | 5.7 |  | > 9.7 | 29 ± 7 |
| COc1cc(CCN)cc(OC)c1OCC(F)F [compound 17, 4-(2,2-difluoroethoxy)-3,5-dimethoxyphenethylamine] |  |  | > 8.7 | > 6.3 | 2.1 | 1.7 |  | 0.9 | 2.9 | 2.7 | > 7.5 | > 8.5 | > 5.6 | 1.3 | 44 to 78 | > 4.2 | 2.7 |  | > 9.7 | 25 ± 7 |
| COc1cc(CC(C)N)cc(OC)c1OCC(F)F (centres unmarked) [compound 19, 4-(2,2-difluoroethoxy)-3,5-dimethoxyamphetamine] |  |  | > 8.7 | > 6.3 | 3.9 | 0.26 ± 0.03 |  | 1.7 | 1.5 | > 5.1 | > 7.5 | > 8.5 | > 5.6 | 0.12 ± 0.02 | 86 to 102 | > 4.2 | 2.6 |  | > 9.7 | 18 to 29 |
| COc1cc(CC(C)N)cc(OC)c1OCCF (centres unmarked) [compound 20, 3,5-dimethoxy-4-(2-fluoroethoxy)amphetamine] |  |  | > 8.7 | > 6.3 | > 4.7 | 0.8 ± 0.24 | >1 |  | 12 | > 5.1 | > 7.5 | > 8.5 | > 5.6 | 0.12 ± 0.04 | 86 to 102 | > 4.2 | 8.4 |  | > 9.7 | 18 to 29 |
| COc1cc(CCN)cc(OC)c1OC(C)C [compound 22, 3,5-dimethoxy-4-isopropoxyphenethylamine] |  |  | > 8.7 | > 6.3 | > 4.7 | > 10 | >1 | 0.9 | 6.2 | 1.2 | > 7.5 | > 8.5 | > 5.6 | 1.9 |  | > 4.2 | 5.4 |  | > 9.7 |  |
| COc1cc(CC(C)N)cc(OC)c1OCCCF (centres unmarked) [compound 27, 3,5-dimethoxy-4-(3-fluoropropoxy)-amphetamine] |  |  | > 8.7 | > 6.3 | > 4.7 | > 10 |  | 1.7 | 2.6 | > 5.1 | > 7.5 | > 8.5 | > 5.6 | 0.057 ± 0.002 |  | 2.8 | 4.4 |  | > 9.7 |  |

— paper PMC8865417, “Receptor Interaction Profiles of 4-Alkoxy-3,5-Dimethoxy-Phenethylamines (Mescaline Derivatives) and Related Amphetamines” (Frontiers in Pharmacology, 2022)
